US9226982B2, “Gall bladder imaging agent and its preparation method” (INSTITUTE OF NUCLEAR ENERGY RESEARCH ATOMIC ENERGY COUNCIL, …, priority 2012, dated 2016)
Each block holds one molecule with its values, some of them ahead of it.

Assays:
ASGPR = target: T1, ASGPR (Mus musculus, UniProt P24721+P34927); assay: Binding strength between carbohydrate chain peptide and mice liver cell (competition with Eu-ASOR, time-resolved fluorescence)
T1 construct: host or cells: mouse liver cells (hepatocytes) cultured on 24-well plates
T1 sequence (P34927 1-284): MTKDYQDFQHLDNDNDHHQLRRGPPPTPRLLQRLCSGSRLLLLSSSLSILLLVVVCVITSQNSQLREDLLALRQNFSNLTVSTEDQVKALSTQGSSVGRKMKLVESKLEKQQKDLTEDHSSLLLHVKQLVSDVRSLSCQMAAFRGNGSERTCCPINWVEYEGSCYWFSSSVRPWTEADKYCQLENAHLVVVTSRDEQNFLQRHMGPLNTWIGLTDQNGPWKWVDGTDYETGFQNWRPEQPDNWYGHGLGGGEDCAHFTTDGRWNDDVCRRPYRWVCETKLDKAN
T1 sequence (P24721 1-301): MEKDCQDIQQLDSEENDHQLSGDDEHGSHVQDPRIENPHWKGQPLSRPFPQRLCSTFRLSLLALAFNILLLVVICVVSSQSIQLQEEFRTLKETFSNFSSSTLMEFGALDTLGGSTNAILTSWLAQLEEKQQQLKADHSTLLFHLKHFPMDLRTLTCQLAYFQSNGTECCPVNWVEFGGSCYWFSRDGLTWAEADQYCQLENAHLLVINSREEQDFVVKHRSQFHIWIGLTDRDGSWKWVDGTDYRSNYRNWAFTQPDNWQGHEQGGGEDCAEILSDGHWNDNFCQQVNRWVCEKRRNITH
Description: The binding strength between carbohydrate chain peptide and a mice liver cell uses Eu-asialo-orosomucoid (Eu-ASOR) as a reference substance and compares whether carbohydrate chain peptides such as DCM-Lys(ah-GalNAc)3, […] larger binding capacity to a mice liver cell than Eu-ASOR. IC50 (50% inhibitory concentration) represents the binding capacity. Smaller IC50 represents larger binding capacity. Mice liver cells are purchased from Lonza biotechnology company in State of Maryland, which are placed and cultivated on a 24-well plate in advance. Reaction takes place at each well. […] Perform oscillating culture for 1 hours. Use an ammonium-chloride-containing liver cell base culture medium to wash away substances that are not bonded to liver cells. Perform time-resolved fluorescence analysis, namely, add an enhancer (15 μM of β-naphthoyl trifluoroacetone, 50 μM of tri-n-octyl-phosphine oxide, 0.1M of potassium hydrogen phthalate, and 0.1% of Triton X-100 in 0.1M of acetic acid, pH of 3.2). The enhancer forms an Eu chelate with Eu^3+ and emits light of 615 nm when energized by 340 nm. The logarithmic value of the concentration of carbohydrate chain peptide is taken as X-axis, and the emitted fluorescence value is taken as the Y-axis. […] However, the binding between DCM-Lys(Gah-GalNAc)3 and ASGPR is 10 times as large as the binding strength of YEE and YDD.

[1] = in vivo
Description: Tyrosine-glutamyl-glutamic acid (YEE) and tyrosine-aspartyl-aspartic acid (YDD) are first proposed by Lee et al. (1983). Tyrosine-glutamyl-glutamyl-glutamic acid (YEEE) is an improved invention by Chen et al. (ROC Patent TW1240002, 2000). The binding force between double-chain galactose amino peptide proposed by Lee et al. in 1983 and a liver cell is 1000 times as large as that of single-chain galactose amino peptide. The binding force between triple-chain galactose amino peptide and a liver cell is 10^6 times as large as that of sing-chain galactose amino peptide. Our laboratory has synthesized DTPA-hexa-lactose with a single lysine derivative earlier, which has very high specific radioactivity with the In-111 label and has a very desirable effect of accumulation at the liver in animal experiments. However, our animal experiments have shown that In-111-DTPA-hexa-lactose stays at the liver very stably for at least half an hour, and it is actually not easy to observe changes of absorption of the gall bladder in the entire imaging process. Therefore, In-111-DTPA-hexa-lactose is suitable for use in remaining liver function test or measurement of remaining liver after liver resection, but is not very suitable for use as a gall bladder imaging agent.

binding strength to ASGPR compared with YEE and YDD (in words) (ASGPR; compared with YEE and YDD): same binding strength as YEE and YDD
SMILES: NCCCCCC(=O)N[C@@H](CC(=O)NCCCC[C@@H](C(=O)NCCCCCCO[C@@H]1O[C@H](CO)[C@@H](O[C@@H]2O[C@H](CO)[C@H](O)[C@H](O)[C@H]2O)[C@H](O)[C@H]1O)N(CC(=O)NCCCCCCO[C@@H]1O[C@H](CO)[C@@H](O[C@@H]2O[C@H](CO)[C@H](O)[C@H](O)[C@H]2O)[C@H](O)[C@H]1O)CC(=O)NCCCCCCO[C@@H]1O[C@H](CO)[C@@H](O[C@@H]2O[C@H](CO)[C@H](O)[C@H](O)[C@H]2O)[C@H](O)[C@H]1O)C(=O)NCCCC[C@@H](C(=O)NCCCCCCO[C@@H]1O[C@H](CO)[C@@H](O[C@@H]2O[C@H](CO)[C@H](O)[C@H](O)[C@H]2O)[C@H](O)[C@H]1O)N(CC(=O)NCCCCCCO[C@@H]1O[C@H](CO)[C@@H](O[C@@H]2O[C@H](CO)[C@H](O)[C@H](O)[C@H]2O)[C@H](O)[C@H]1O)CC(=O)NCCCCCCO[C@@H]1O[C@H](CO)[C@@H](O[C@@H]2O[C@H](CO)[C@H](O)[C@H](O)[C@H]2O)[C@H](O)[C@H]1O [AHA-Asp[DCM-Lys(ahLac)3]2]

SMILES: CC(=O)N[C@H]1[C@H](OCCCCCCNC(=O)CNC(=O)CN(CC(=O)NCC(=O)NCCCCCCO[C@@H]2O[C@H](CO)[C@H](O)[C@H](O)[C@H]2NC(C)=O)[C@@H](CCCCN)C(=O)NCC(=O)NCCCCCCO[C@@H]2O[C@H](CO)[C@H](O)[C@H](O)[C@H]2NC(C)=O)O[C@H](CO)[C@H](O)[C@@H]1O [DCM-Lys(GahGalNAc)3]
binding strength to ASGPR relative to YEE and YDD (ASGPR; compared with YEE and YDD): 10 times
IC50 (ASGPR; mice liver cells, 10 nM Eu-ASOR as reference substance, 1 hour culture): 1 nM

SMILES: O=C(O)CN(CCN(CC(=O)O)CC(=O)O)CCN(CC(=O)O)CC(=O)NCCCCCC(=O)N[C@@H](CC(=O)NCCCC[C@@H](C(=O)NCCCCCCO[C@@H]1O[C@H](CO)[C@@H](O[C@@H]2O[C@H](CO)[C@H](O)[C@H](O)[C@H]2O)[C@H](O)[C@H]1O)N(CC(=O)NCCCCCCO[C@@H]1O[C@H](CO)[C@@H](O[C@@H]2O[C@H](CO)[C@H](O)[C@H](O)[C@H]2O)[C@H](O)[C@H]1O)CC(=O)NCCCCCCO[C@@H]1O[C@H](CO)[C@@H](O[C@@H]2O[C@H](CO)[C@H](O)[C@H](O)[C@H]2O)[C@H](O)[C@H]1O)C(=O)NCCCC[C@@H](C(=O)NCCCCCCO[C@@H]1O[C@H](CO)[C@@H](O[C@@H]2O[C@H](CO)[C@H](O)[C@H](O)[C@H]2O)[C@H](O)[C@H]1O)N(CC(=O)NCCCCCCO[C@@H]1O[C@H](CO)[C@@H](O[C@@H]2O[C@H](CO)[C@H](O)[C@H](O)[C@H]2O)[C@H](O)[C@H]1O)CC(=O)NCCCCCCO[C@@H]1O[C@H](CO)[C@@H](O[C@@H]2O[C@H](CO)[C@H](O)[C@H](O)[C@H]2O)[C@H](O)[C@H]1O [In-111-DTPA-hexa-lactose, metal not drawn]
time it stays at the liver very stably [1]: at least half an hour
